According to patent US5621102A, “Process for preparing enantiomerically pure xanthine derivatives” (Cell Therapeutics, Inc., priority 1995, dated 1997):

How the values were obtained:
[1] = test system: adhesion of activated U937 cells to HUVEC; experiment: adhesion of IL-1α activated U937 cells to non-stimulated HUVEC; assay type: cell-based, human; conditions: 250 μM pre-treatment of U937 cells
Procedure: U937 cells were stimulated with various concentrations of IL-1-α with or without the addition of 250 µM CT1501R one hour prior to addition of IL-1-α. Twelve hours later, the U937 cells were stained with BCECF and allowed to adhere to HUVEC. FIG. 22 is the relative BCECF fluorescence (+/-SD) for each of the treatment groups.
(§1) Murine peritoneal exudate cell macrophages (PEC) were isolated by perfusion of mouse peritoneum and plated into 96-well trays at 5×10^5 cells per well. Cells were stimulated with 5 μg/ml Salmonella abortus equi-derived endotoxin CLPS; Sigma Chemical Co., L-1887) or 50 ng/ml IL-1α (Genzyme; Cambridge, Mass.) with or without the addition of CT1501R added to the cultures one hour prior to addition of the stimulus. At various times thereafter, supernatants were removed and levels of either TNF-α or IL-1α were assayed using commercial 96-well microtiter immunoassay kits (Genzyme; TNF; Endogen, Boston, Mass.; IL-1α) according to manufacturer's specifications. […] After addition of […] Hanks Balanced Salt Solution (HBSS), the microtiter plate was then analyzed on a Millipore Cytofiuor fluorescent plate reader (excitation 488 nm; emission 525 nm). […]

[2] = test system: hematopoietic reconstitution following 5-FU; experiment: 5-fluorouracil (5-FU) induced bone marrow suppression in mice; assay type: in vivo, Balb/C mice
Source text: Groups of 4 mice were phlebotomized at each time point. The values on the graph represent the means ±1 SD.
Groups of 4 mice were phlebotomized at each time point. The values on the group represent the means ±1 SD.
Groups of 4 mice were sacrificed and had one femur harvested at each time point. The values on the graph represent the means ±1 SD of the mean number of colonies per each individual tested in triplicate cultures.
Female Balb/C mice (VAF, Charles River Laboratories, 6-8 wks of age approximately 17.3-18.5 g) were treated with 5-FU at a dose of 200 mg/kg intraperitoneally (i.p.) in experiment 1 or 190 μg/kg in experiment 2. […] Mice (4 per group) were sacrificed starting 2 days after 5-FU by cardiac puncture under halothane anesthesia followed by cervical dislocation and had total white blood cell counts and differential counts performed. Platelet counts were performed using phase-contrast microscopy in duplicate. Femurs were harvested and the number of granulocyte-macrophage colony forming cells (CFU-GM) per femur were measured using a standard assay (Terry Fox Laboratories, Vancouver, British Columbia) using pokeweed mitogen spleen conditioned medium as the growth factor. Each femur was plated separately in triplicate and the mean and means for each experimental point was calculated. Standard deviations used for staffstidal analysis were deviations of the mean number of colonies measured for each femur.
Experiment 2 was similar to experiment 1 with the following exceptions: (1) the dose of 5-FU was decreased to 185 mg/kg; (2) daily blood draws were performed between days 10 and 15; and (3) platelet counts were performed.

[3] = test system: TNF-α release from LPS-activated mouse peritoneal macrophages; experiment: TNF-α release from LPS stimulated PEC, ELISA; assay type: cell-based; conditions: Peritoneal macrophage
Procedure: R. Cells were isolated and treated with or without various concentrations of CT1501R one hour prior to LPS activation ([…]). Twenty four hours later the supernalants were collected assayed for TNF-α by ELISA (+/-SD).
Murine peritoneal exudate cell macrophages (PEC) were isolated by perfusion of mouse peritoneum and plated into 96-well trays at 5×10^5 cells per well. […] At various times thereafter, supernatants were removed and levels of either TNF-α or IL-1α were assayed using commercial 96-well microtiter immunoassay kits (Genzyme; TNF; Endogen, Boston, Mass.; IL-1α) according to manufacturer's specifications. […] 4000 cells were plated into each well of a 96-well microtiter plate and allowed to incubate for 72 hrs at 37° C. […] Either the HUVEC or U937 cells were stimulated with either LPS, IL-1α or TNF-α for 12 hrs. For the adhesion assay, U937 cells were labeled with the fluorescent viability stain, 2',7'-bis-(2-carboxyethyl)-5-(and-6)-carboxyfluorescein acetoxymethyl ester (BCECF). […] The cells were washed once with full media and 50,000 cells/well added to the HUVEC cultures. The samples were incubated at 37° C. for 30 min, inverted and centrifuged for 10 min at 400×g. After addition of […] Hanks Balanced Salt Solution (HBSS), the microtiter plate was then analyzed on a Millipore Cytofiuor fluorescent plate reader (excitation 488 nm; emission 525 nm). […]

[4] = test system: adhesion of U937 cells to activated HUVEC; experiment: adhesion of U937 cells to activated HUVEC (BCECF fluorescence); assay type: cell-based, human; conditions: 250 μM
Procedure: HUVEC were stimulated with either IL-1-α (100 ng/ml); TNF-α (10 ng/ml) or LPS ([…]) with or without the addition of 250 μM CT1501R one hour prior to addition of the stimulus. Twelve hours later, the cells were assayed for adhesion of BCECF-labeled U937 cells. FIG. 21 is the relative BCECF fluorescence (+/-SD) for each of the treatment groups.
as §1

## C[C@@H](O)CCCCn1c(=O)c2c(ncn2C)n(C)c1=O [CT1501R, (R)-1-(5-hydroxyhexyl)-3,7-dimethylxanthine]
[1]
  IL-1α mediated increase in adhesion of U937 cells to HUVEC: effectively blocked the IL-1α mediated increase in adhesion to HUVEC to near background levels
[2]; 5-FU treated mice
  increase in number of CFU-GM/femur during hematopoietic recovery vs control: approximately two-fold increase
[2]; experiment 1, day 13 (p=0.024 vs vehicle, p=0.05 vs day 0)
  CFU-GM/femur vs vehicle control and day 0: significantly more CFU-GM/femur on day 13
[2]; experiment 1, day 13 after 5-FU (control 180±10/mm^3, P=0.05)
  ANC (absolute neutrophil count), mean ±SD: 440±17 /mm^3
[2]; experiment 1, days 6 and 10 (p=0.019 and 0.036)
  WBC of 5-FU treated mice vs vehicle control: significantly lower in vehicle treated controls than in CT1501R treated mice
[2]; experiment 2
  WBC vs vehicle control: significantly higher WBC's
  neutrophil recovery: Neutrophil recovery was accelerated
  number of cells per femur during hematopoietic recovery vs control: number of cells per femur was increased
  platelet count nadir and rate of recovery vs vehicle control: platelet count nadir and rate of recovery were also increased
[2]; i.p. bid, no 5-FU
  WBC and ANC, mice without 5-FU: remained within 1 SD of control values
  adverse effects, mice without 5-FU: no apparent adverse effects
[2]; no 5-FU, twice daily i.p. injections
  rise in ANC and CFU-GM/femur associated with vehicle injections, mice without 5-FU: prevented both the rise in ANC and rise in CFU-GM/femur
[3]; 500 μM, read-out: inhibitory effects, % of the maximal LPS stimulation (1428 pg/ml)
  inhibition at 500 µM: ~40%
[3]; drug 1 hour before LPS (10 μg/ml LPS), read-out: IC50 for TNF-α inhibition (concentration for 50% inhibition)
  IC50: ~30 µM
[4]; 1 hour prior to TNF-α, IL-1α or LPS
  relative adhesiveness of activated HUVEC for U937 cells: marked suppression in the relative adhesiveness
[4]; non-activated HUVEC
  background attachment of U937 cells to HUVEC: no significant effect on background attachment
